# Molecular target: T1, SCD-1 (Homo sapiens, UniProt O00767)
# T1 construct: 50 μg of protein from a HepG2 cell P2 pellet; endogenous in cells; host or cells: HepG2 cells (P2 pellet)
# T1 sequence (O00767 1-359): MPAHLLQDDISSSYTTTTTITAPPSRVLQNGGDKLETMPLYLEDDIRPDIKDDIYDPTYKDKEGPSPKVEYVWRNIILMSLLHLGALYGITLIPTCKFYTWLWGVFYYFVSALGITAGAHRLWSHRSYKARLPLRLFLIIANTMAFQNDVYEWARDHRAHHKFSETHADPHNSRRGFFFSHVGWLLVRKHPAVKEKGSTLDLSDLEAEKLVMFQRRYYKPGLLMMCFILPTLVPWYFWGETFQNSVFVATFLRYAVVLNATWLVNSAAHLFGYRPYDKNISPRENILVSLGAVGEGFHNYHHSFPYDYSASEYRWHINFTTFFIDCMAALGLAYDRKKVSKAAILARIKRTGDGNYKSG
# Assay: Stearoyl-CoA desaturase assay (HepG2 cell P2 pellet)
# Type: biochemical
# Details: Table 1, compounds of formula (Ia); protein from HepG2 cell P2 pellet, 20 μM stearoyl-CoA, 15 min at 25° C.; read-out: Ave IC50
# Description: Stearoyl-CoA desaturase assays were performed in according to Talamo and Bloch. […] Assays were run in triplicate in 100-μl volumes of 100 mM TrisHCl, pH 7.3, containing 20 μM stearoyl-CoA, 2 mM β-NADH, and 50 μg of protein from a HepG2 cell P2 pellet. Since SCD-1 is the only isoform of SCD expressed in these cells, the assay is specific for SCD-1 with these cells as the source of enzyme. Reaction mixtures were incubated fifteen minutes at 25° C. and reactions were then stopped with a volume of trichloroacetic acid giving a final concentration of 0.2%. After five minutes, a 90-μl volume was transferred to a Millipore Multiscreen HTS 96-well filtration plate (MSHVN4B50) containing 125 μl of 10% charcoal in each well, to which vacuum had been previously applied. Plates were shaken fifteen minutes and then filtered into a collection plate. Fifty-μI volumes of filtrate were transferred to another plate containing 150 μl of MicroScint 40 for counting on a TopCount scintillation counter.
row,IC50,Compound
1,500 to 10000 nM,COC(=O)c1cccc(CN2CCC3(CCN(C(=O)CNC(C)=O)CC3)Oc3ccccc32)c1 [Compound 25]
2,500 to 10000 nM,CC(=O)NCC(=O)N1CCC2(CC1)CCN(Cc1cccc(Cl)c1)c1ccccc1O2 [Compound 26]
3,50 to 499 nM,CC(=O)NCC(=O)N1CCC2(CC1)CCN(Cc1ccc(F)cc1)c1ccccc1O2 [Compound 27]
4,500 to 10000 nM,CC(=O)NCC(=O)N1CCC2(CC1)CCN(Cc1ccccc1Cl)c1ccccc1O2 [Compound 28]
5,500 to 10000 nM,CC(=O)NCC(=O)N1CCC2(CC1)CCN(Cc1cccc(F)c1)c1ccccc1O2 [Compound 29]
6,500 to 10000 nM,CC(=O)NCC(=O)N1CCC2(CC1)CCN(Cc1ccccc1)c1ccccc1O2 [Compound 30]
7,500 to 10000 nM,COc1ccc(CN2CCC3(CCN(C(=O)CNC(C)=O)CC3)Oc3ccccc32)cc1F [Compound 31]
8,500 to 10000 nM,CC(=O)NCC(=O)N1CCC2(CC1)CCN(Cc1cccc(O)c1)c1ccccc1O2 [Compound 32]
9,500 to 10000 nM,CC(=O)NCC(=O)N1CCC2(CC1)CCN(Cc1ccc(Cl)s1)c1ccccc1O2 [Compound 33]
10,500 to 10000 nM,CC(=O)NCC(=O)N1CCC2(CC1)CCN(Cc1ccc(Br)s1)c1ccccc1O2 [Compound 34]
11,500 to 10000 nM,CC(=O)NCC(=O)N1CCC2(CC1)CCN(Cc1ccc(C)cc1)c1ccccc1O2 [Compound 35]
12,500 to 10000 nM,CC(=O)NCC(=O)N1CCC2(CC1)CCN(Cc1cccc(OC(F)(F)F)c1)c1ccccc1O2 [Compound 36]
13,500 to 10000 nM,CC(=O)NCC(=O)N1CCC2(CC1)CCN(Cc1ccccc1Br)c1ccccc1O2 [Compound 37]
14,500 to 10000 nM,CC(=O)NCC(=O)N1CCC2(CC1)CCN(Cc1cccc(Br)c1)c1ccccc1O2 [Compound 39]
15,500 to 10000 nM,CC(=O)NCC(=O)N1CCC2(CC1)CCN(Cc1ccc(Br)cc1)c1ccccc1O2 [Compound 40]
16,500 to 10000 nM,CC(=O)NCC(=O)N1CCC2(CC1)CCN(Cc1ccccc1C)c1ccccc1O2 [Compound 41]
17,50 to 499 nM,CC(C)(C)c1ccc(CN2CCC3(CCN(C(=O)CNC(=O)c4cccs4)CC3)Oc3ccccc32)cc1 [Compound 44]
18,500 to 10000 nM,CC(=O)NCC(=O)N1CCC2(CC1)CCN(Cc1cccc(C(F)(F)F)c1)c1cccc(F)c1O2 [Compound 45]
19,500 to 10000 nM,CC(=O)NCC(=O)N1CCC2(CC1)CCN(Cc1ccc(C(C)(C)C)cc1)c1cccc(F)c1O2 [Compound 46]
20,500 to 10000 nM,CCc1ccc(CN2CCC3(CCN(C(=O)CNC(C)=O)CC3)Oc3c(F)cccc32)cc1 [Compound 47]

# The remaining lines, values behind:
row,Compound,IC50
1,"CC(=O)NCC(=O)N1CCC2(CC1)CCN(Cc1cccc(C(F)(F)F)c1)c1ccccc1O2 [Compound 1, N-(2-oxo-2-(5-(3-(trifluoromethyl)benzyl)-4,5-dihydro-3H-spiro[benzo[b][1,4]oxazepine-2,4′-piperidine]-1′-yl)ethyl)acetamide]",> 10000 nM
2,CCc1ccc(CN2CCC3(CCN(C(=O)C(CO)NC(C)=O)CC3)Oc3ccccc32)cc1 (centres unmarked) [Compound 2],> 10000 nM
3,CCc1ccc(CN2CCC3(CCN(C(=O)[C@H](C)NC(C)=O)CC3)Oc3ccccc32)cc1 [Compound 3],> 10000 nM
4,CCc1ccc(CN2CCC3(CCN(C(=O)[C@@H](C)NC(C)=O)CC3)Oc3ccccc32)cc1 [Compound 4],500 to 10000 nM
5,CCc1ccc(CN2CCC3(CCN(C(=O)CNC(=O)C4CC4)CC3)Oc3ccccc32)cc1 [Compound 5],500 to 10000 nM
6,CCc1ccc(CN2CCC3(CCN(C(=O)CNC(=O)C(C)C)CC3)Oc3ccccc32)cc1 [Compound 6],500 to 10000 nM
7,CCc1ccc(CN2CCC3(CCN(C(=O)CNC(=O)CC4CC4)CC3)Oc3ccccc32)cc1 [Compound 7],50 to 499 nM
8,CCc1ccc(CN2CCC3(CCN(C(=O)CNC(=O)C[C@@H](C)O)CC3)Oc3ccccc32)cc1 [Compound 8],500 to 10000 nM
9,CCc1ccc(CN2CCC3(CCN(C(=O)CNC(=O)CCN(C)C)CC3)Oc3ccccc32)cc1 [Compound 9],> 10000 nM
10,CCc1ccc(CN2CCC3(CCN(C(=O)CNC(=O)Cc4ccccn4)CC3)Oc3ccccc32)cc1 [Compound 10],> 10000 nM
11,CCc1ccc(CN2CCC3(CCN(C(=O)CNC(=O)Cc4cn(C)cn4)CC3)Oc3ccccc32)cc1 [Compound 11],500 to 10000 nM
12,CC(=O)NCC(=O)N1CCC2(CC1)CCN(Cc1ccc(C(C)(C)C)cc1)c1cccc(Cl)c1O2 [Compound 15],500 to 10000 nM
13,COc1ccc(CN2CCC3(CCN(C(=O)CNC(C)=O)CC3)Oc3ccccc32)cc1 [Compound 16],500 to 10000 nM
14,CC(=O)NCC(=O)N1CCC2(CC1)CCN(Cc1ccc(Cl)cc1)c1ccccc1O2 [Compound 17],> 10000 nM
15,CC(=O)NCC(=O)N1CCC2(CC1)CCN(Cc1ccc(OC(C)(C)C)cc1)c1ccccc1O2 [Compound 18],> 10000 nM
16,CC(=O)NCC(=O)N1CCC2(CC1)CCN(Cc1ccccc1F)c1ccccc1O2 [Compound 19],> 10000 nM
17,CC(=O)NCC(=O)N1CCC2(CC1)CCN(Cc1ccc(C)s1)c1ccccc1O2 [Compound 20],> 10000 nM
18,CC(=O)NCC(=O)N1CCC2(CC1)CCN(Cc1ccc(C#N)cc1)c1ccccc1O2 [Compound 21],500 to 10000 nM
19,CC(=O)NCC(=O)N1CCC2(CC1)CCN(Cc1ccc(OC(F)(F)F)cc1)c1ccccc1O2 [Compound 22],500 to 10000 nM
20,CC(=O)NCC(=O)N1CCC2(CC1)CCN(Cc1ccc(C#N)cc1)c1ccccc1O2 [Compound 23],> 10000 nM
21,COc1ccccc1CN1CCC2(CCN(C(=O)CNC(C)=O)CC2)Oc2ccccc21 [Compound 24],500 to 10000 nM

# Same assay, conditions: Table 2, compounds of formula (Ib); protein from HepG2 cell P2 pellet, 20 μM stearoyl-CoA, 15 min at 25° C.; read-out: Ave IC50
row,IC50,Compound
1,0.5 to 49 nM,"COC(=O)c1cnc(N2CCC3(CC2)CCN(Cc2cccc(C(F)(F)F)c2)c2ccccc2O3)s1 [Compound 50, methyl 2-(5-(3-(trifluoromethyl)benzyl)-4,5-dihydro-3H-spiro[benzo[b][1,4]oxazepine-2,4′-piperidine]-1′-yl)thiazole-5-carboxylate]"
2,500 to 10000 nM,O=C(NCCC1CC1)c1cnc(N2CCC3(CC2)CCN(Cc2cccc(C(F)(F)F)c2)c2ccccc2O3)s1 [Compound 51]
3,0.5 to 49 nM,NC(=O)c1cnc(N2CCC3(CC2)CCN(Cc2cccc(C(F)(F)F)c2)c2ccccc2O3)s1 [Compound 52]
4,500 to 10000 nM,FC(F)(F)c1cccc(CN2CCC3(CCN(c4ncc(Br)s4)CC3)Oc3ccccc32)c1 [Compound 53]
5,0.5 to 49 nM,"O=C(O)c1cnc(N2CCC3(CC2)CCN(Cc2cccc(C(F)(F)F)c2)c2ccccc2O3)s1 [Compound 54, 2-(5-(3-(trifluoromethyl)benzyl)-4,5-dihydro-3H-spiro[benzo[b][1,4]oxazepine-2,4′-piperidine]-1′-yl)thiazole-5-carboxylic Acid]"
6,500 to 10000 nM,O=C(c1cnc(N2CCC3(CC2)CCN(Cc2cccc(C(F)(F)F)c2)c2ccccc2O3)s1)N1CCCC1 [Compound 56]
7,500 to 10000 nM,O=C(NCc1ccccc1)c1cnc(N2CCC3(CC2)CCN(Cc2cccc(C(F)(F)F)c2)c2ccccc2O3)s1 [Compound 57]
8,0.5 to 49 nM,"CNC(=O)c1cnc(N2CCC3(CC2)CCN(Cc2cccc(C(F)(F)F)c2)c2ccccc2O3)s1 [Compound 58, N-methyl-2-(5-(3-(trifluoromethyl)benzyl)-4,5-dihydro-3H-spiro[benzo[b][1,4]oxazepine-2,4′-piperidine]-1′-yl)thiazole-5-carboxamide]"
9,50 to 499 nM,CC(C)(C)OC(=O)CCNC(=O)c1cnc(N2CCC3(CC2)CCN(Cc2cccc(C(F)(F)F)c2)c2ccccc2O3)s1 [Compound 60]
